The values below come from US20120245229A1, “METHOD FOR TREATING NEUROPATHIC PAIN” (priority 2009, published 2012).

Experiment [1] relates to complete Freund's adjuvant (CFA)-evoked heat hyperalgesia. The experiment can be described thus: CFA-evoked heat hyperalgesia (paw withdrawal latency, Hargreaves). The class given is in vivo, mice. The following applies: for reduction of heat hyperalgesia: 10 ng i.t., post-CFA day 3, 1 h after injection. How it is done: (§1) Animals and pain models. Adult CD1 mice (male, 25-32 g) were used for most experiments. Knockout mice were used lacking TNFR1/II (Tnfrsf1a/1b^−/−) and TRPV1 (Trpv1^−/−) and C57BL/6 wild-type control mice, all from Jackson, for some experiments. All animal procedures performed in this study were approved by the Harvard Medical Area Standing Committee on Animals. 20 μl of diluted formalin (5%), carrageenan (CRG, 1%), or complete Freund's adjuvant (CFA) were injected into the plantar surface of a hindpaw to produce acute, persistent, or chronic inflammatory pain, respectively. Postoperative pain was also produced through hindpaw incision^36 and neuropathic pain by ligation of the spinal nerve^37.
Reagents and administration. RvE1 and RvD1 were suspended in 1% or 10% ethanol as vehicle for investigating acute (<1 h) and persistent (1-6 h) effects of resolvins on inflammatory pain. The reagents (10 μl) were delivered to the cerebral spinal fluid via intrathecal injection made by a spinal cord puncture between the L5 and L6 level with a 30G needle^38.
(§2) Behavioral analysis. Mice were habituated in the testing environment for two days and performed behavioral testing in a blinded manner. Formalin-evoked spontaneous inflammatory pain was assessed by measuring duration (seconds) animals spent on licking/flinching the affected paws every 5 min for 45 min. Capsaicin-induced spontaneous pain was aslo assessed for 10 min. For testing mechanical sensitivity, mice were put in boxes on an elevated metal mesh floor and stimulated hindpaw with a series of von Frey hairs with logarithmically incrementing stiffness (0.02-2.56 grams, Stoelting), presented perpendicular to the plantar surface. It was determined the 50% paw withdrawal threshold using Dixon's up-down method^40. For testing heat sensitivity, mice were placed in plastic boxes and tested heat sensitivity using Hargreaves radiant heat apparatus (IITC Life Science Inc.). The basal paw withdrawal latency was adjusted to 9-12 seconds and set a cut-off of 20 seconds to prevent tissue damage. The percent maximal possible antinociceptive effect (% M.P.E) was calculated using the equation % M.P.E.=[(PL−BL2)/(BL1−BL2)]×100. BL1, baseline latency before inflammation; BL2, baseline latency after inflammation but before drug injection; PL, latency post drug injection.
Intrathecal injection. To avoid systemic effects of drugs and target spinal mechanisms, drugs were delivered into cerebral spinal fluid (CSF) space around lumbosacral spinal cord via intrathecal (i.t.) administration. Spinal cord puncture was made with a 30G needle between the L5 and L6 level to deliver the reagents (10 μl) to the cerebral spinal fluid (Hylden and Wilcox, 1980)^5. […] In addition to spinal cord cells, intrathecal drug administration also affects DRG cells^6,7.
The anti-hyperalgesic efficacy of RvE1 prepared in 1% and 10% ethanol was compared on post-CFA day 3.

Experiment [2] relates to naïve mice. The experiment can be described thus: Basal pain thresholds in naive mice. The class given is in vivo. The following applies: intrathecal. How it is done: as §2
The subject of experiment [3] is proinflammatory cytokines (TNF-α, IL-1β, IL-6) and chemokines (MCP-1, MIP-1α). The experiment can be described thus: Cytokine array of inflamed hindpaw skin after carrageenan. Particulars: intraplantar RvE1 20 ng prior to CRG; 2 h after CRG. The class given is in vivo, mouse. The protocol:
The mouse cytokine array kits were purchased from R&D. Protein samples were prepared in the same way as for Western blotting analysis. Each reaction was performed according to manufacturer's protocol using 400 μg proteins. In brief, protein samples were incubated with a blot (array) that is pre-coated with 40 cytokines/chemokines for 24 h at 4° C. The remaining procedures were similar to that of Western blotting. Also see Gao et al., 2009^12.

For experiment [4], the system named is capsaicin-induced spontaneous pain. Nature of the experiment: Capsaicin-induced acute spontaneous pain. The class given is in vivo, mice. How it is done: as §2, with “The percent maximal possible antinociceptive effect (% M.P.E) was calculated using the equation % M.P.E.=[(PL−BL2)/(BL1−BL2)]×100.” left out, “injection. Intrathecal injection: […] To examine whether pretreatment of RvE1 attenuates capsaicin-induced acute spontaneous pain, RvE1 and capsaicin were mixed and injected at the same time (FIG. 3f). […]” for “injection.”

Experiment [5] relates to paw incision-induced postoperative pain. The experiment can be described thus: Postoperative pain model induced by hindpaw incision. The class given is in vivo, mice. Particulars: postoperative pain model induced by surgical incision. How it is done:
as §1
Behavioral analysis. Mice were habituated in the testing environment for two days and performed behavioral testing in a blinded manner. Formalin-evoked spontaneous inflammatory pain was assessed by measuring duration (seconds) animals spent on licking/flinching the affected paws every 5 min for 45 min. Capsaicin-induced spontaneous pain was aslo assessed for 10 min. […] It was determined the 50% paw withdrawal threshold using Dixon's up-down method^40. […] The percent maximal possible antinociceptive effect (% M.P.E) was calculated using the equation % M.P.E.=[(PL−BL2)/(BL1−BL2)]×100. […]

Experiment [6] deals with formalin-induced inflammatory pain. The experiment can be described thus: Formalin-induced spontaneous inflammatory pain (licking/flinching duration). The class given is in vivo, mice. Particulars: intraplantar RvE1 20 ng, 10 min before intraplantar formalin.

As to `CC[C@@H](O)/C=C/C=C\C[C@@H](O)/C=C/C=C/C=C\[C@@H](O)CCCC(=O)O` [RvE1, 5S,12R,18R-trihydroxyeicosapentaenoic acid], the “reduction of heat hyperalgesia” value is given as 54.7% in experiment [1] (vehicle 1% ethanol) and 55.7% in experiment [1] (vehicle 10% ethanol). Besides, the reduction in hyperalgesia in experiment [1] (10 ng intrathecal, post-CFA day 3, 15 min after administration) is ~75%. In addition, in experiment [1] (intrathecal, CFA heat hyperalgesia, 1-6 h), the “potency of 10 ng RvE1 compared with 10 μg NS-398” value is “more potent than 10 μg COX-2 inhibitor NS-398”. In experiment [2], the baseline sensory thresholds result was “did not alter baseline sensory thresholds”. In addition, in experiment [3], the “expression of proinflammatory cytokines (TNF-α, IL-1β, IL-6) and chemokines (MCP-1, MIP-1α) in inflamed hindpaws” value was “reducing”. Also, the “intrathecal capsaicin-evoked acute spontaneous pain” value in experiment [4] (intrathecal RvE1 mixed with capsaicin 0.5 μg) is recorded as “prevented”. Also, the “intraplantar capsaicin-induced acute pain” value in experiment [4] (peripheral (intraplantar) RvE1 10 min before capsaicin 5 μg) is reported as “reduced”. Further, the postoperative pain entry in experiment [5] is on record as “effectively abolish”. For the same molecule, the formalin-evoked acute pain entry in experiment [6] was “rapidly attenuated”.
